Columns and labels:
Type in all cases: cell-based
[1] = tested on: H929 multiple myeloma cells; experiment: Anti-CD38 antibody-dependent cell-mediated cytotoxicity (Calcein-AM) in H929 cells; conditions: 0.5 μM-2 μM for 24 hours
Description: Multiple myeloma cells were incubated with Calcein-AM (Invitrogen, 2 μg/ml/1 million cells) for 30 min at 37° C. After washing, the cells were used for target cells. Mononuclear cells were obtained from healthy volunteer peripheral blood by Ficoll-Paque density centrifugation and used for effector cells. Both target and effector cells (E/T=15-20) were incubated for 3-4 h and culture supernatant were subjected to measurement of fluorescence using a 490 nm excitation filter and a 520 emission filter. Percent specific lysis was calculated as follows, % specific lysis=[experiment fluorescence−spontaneous fluorescence (no effector)]/[complete lysis (100% killing by detergent)−spontaneous fluorescence (no effector)]×100 Flow Cytometry-Based Ex Vivo ADCC Assay
Cells were stained with Calcein-AM and incubated with peripheral blood mononuclear cells at a ratio of 20:1 for 3 hours.

[2] = tested on: RPMI-8226 multiple myeloma cells; experiment: CD38 surface level by FACS, RPMI-8226 cells; conditions: various doses, 48 hours, FACS (FIG. 1A)
[3] = tested on: MM.1S multiple myeloma cells; experiment: CD38 surface level by FACS, MM.1S cells; conditions: various doses, 48 hours, FACS (FIG. 1B)
H929 cells = experiment: Anti-CD38 ADCC in CFSE-stained H929 cells with PBMCs, flow cytometry; conditions: pomalidomide 0.1 μM, Compound B 0.25, 0.5, 1 μM, 72 h, then anti-CD38 antibody 0.5 μg/ml 3 hours (FIG. 6)
Description: The cells were then incubated with an anti-CD38 antibody (0.5 μg/ml) for 3 hours. Cytotoxicity was assessed by flow cytometry.

[4] = tested on: patient-derived multiple myeloma cells; experiment: Ex vivo anti-CD38 ADCC in autologous setting, patients' bone marrow aspirates; conditions: anti-CD38 antibody 0.5 μg/ml with or without Compound B 0.5 μM, 72 hours (FIG. 3A)
Description: After bone marrow aspiration, fresh bone marrow mononuclear cells (MNC) were obtained by ammonium chloride based-lyses of red cells followed by washing in phosphate-buffered saline (PBS). […] The cells were incubated for 72 h at 37° C. in 5% CO2. The viability of primary MM cells in BM MNC was determined by near infrared (n-IR) viability dyes. The surviving CD138+MM cells were enumerated in the presence of Flow-Count Fluorospheres (Beckman Coulter, CA, USA), to determine absolute numbers of viable MM cells. The percentage of daratumumab-mediated ADCC was then calculated using the following formula: % lysis cells=100−[(absolute number of surviving CD138+ cells in the presence of daratumumab/absolute number of surviving CD138+ cells in the presence of control antibody)×100%]. Phenotypic analyses of MNC were performed using a single 5-color combination of monoclonal antibodies containing CD138-PE/CD38-APC/n-IR-viability (BioLegend, San Diego, Calif., USA). Plasma cells in BM MNC were identified by CD138-PE and CD38-APC staining, and expression of CD38 on plasma cells were determined (BD Biosciences, San Jose, Calif., USA). After incubation, cells were washed twice in PBS containing 2% BSA, and then resuspended in PBS for analysis on a Fortessa cytometer (Becton Dickinson, Mountain View, Calif.). […]
The average cytotoxicity (mean±SD) was calculated from 6 patients' samples (see also FIG. 3B).

Structure (SMILES): O=C(CCCCCCNC(=O)c1cnc(N(c2ccccc2)c2ccccc2)nc1)NO [Compound A, 2-(diphenylamino)-N-(7-(hydroxyamino)-7-oxoheptyl)pyrimidine-5-carboxamide]
- Percent specific lysis ([1]; PBMC 20:1 for 3 hours (FIG. 2A)): increased as concentration of Compound A increased
- percent augmentation ([1]; PBMC 20:1 for 3 hours (FIG. 2B)): increased as concentration of Compound A increased
- percentage of CD38 positive cells [2]: increased
- percentage of CD38 positive cells [3]: increased

Structure (SMILES): O=C(CCCCCCNC(=O)c1cnc(N(c2ccccc2)c2ccccc2Cl)nc1)NO [Compound B, 2-((2-chlorophenyl)(phenyl)amino)-N-(7-(hydroxyamino)-7-oxoheptyl)pyrimidine-5-carboxamide]
- anti-CD38 antibody-induced cytotoxicity (ADCC) (H929 cells): enhanced
- percentage of CD38 positive cells [2]: increased
- percentage of CD38 positive cells [3]: increased
- anti-CD38 antibody dependent cell mediated cytotoxicity [4]: increased
